Test system: cancer cell lines
Experiment: Multiplexed cytotoxicity assay: cell proliferation (relative cell count IC50, GI50)
Type: cell-based
Procedure: (§1) Cells are grown in RPMI1640, 10% FBS, 2 mM L-alanyl-L-Glutamine, 1 mM Na pyruvate or a special medium in a humidified atmosphere of 5% CO2 at 37° C. Cells are seeded into 384-well plates and incubated in a humidified atmosphere of 5% CO2 at 37° C. Compounds are added 24 h post cell seeding. At the same time, a time zero untreated cell plate is generated. After a 72 hour incubation period, cells are fixed and stained with fluorescently labeled antibodies and nuclear dye to allow visualization of nuclei, apoptotic cells and mitotic cells. Apoptotic cells are detected using an anti-active caspase-3 antibody. Mitotic cells are detected using an anti phospho-histone-3 antibody. Compounds are serially diluted 3.16-fold and assayed over 10 concentrations in a final assay concentration of 0.1% DMSO from the highest test concentration of 10 μM. Automated fluorescence microscopy was carried out using a Molecular Devices ImageXpress Micro XL high-content imager, and images are collected with a 4× objective.
(§2) Sixteen-bit TIFF images are acquired and analyzed with MetaXpress 5.1.0.41 software. Cell proliferation is measured by the signal intensity of the incorporated nuclear dye. The cell proliferation assay output is referred to as the relative cell count. To determine the cell proliferation end point, the cell proliferation data output is transformed to percentage of control (POC) using the following formula: POC=relative cell count(compound wells)/relative cell count(vehicle wells)×100
(§3) GI50 is the concentration needed to reduce the observed growth by half. This is the concentration that inhibits the growth to the level midway between growth in untreated cells and the number of cells seeded in the well (Time zero value). The IC50 values are calculated using nonlinear regression to fit data to a sigmoidal 4 point, 4 parameter One-Site dose response model, where: y(fit)=A+[(B−A)/(1+((C/x)^D))].
as §1, with “In another experiment, cells were grown” for “Cells are grown”, “Cells were” for “Cells are”, “Compounds were” for “Compounds are”, “plate was” for “plate is”, “cells were” for “cells are”, “images were” for “images are”
as §2, with “images were” for “images are”, “proliferation was” for “proliferation is”, “output was” for “output is”
as §3, with “GI50 refers to” for “GI50 is”, “This corresponds to” for “This is”, “values were” for “values are”

[1] = Homo sapiens, SK-N-AS, 72 h, SKNAS, CNS, Neuroblastoma
[2] = Homo sapiens, SK-N-DZ, 72 h, SKNDZ, CNS, Neuroblastoma
[3] = Homo sapiens, SK-N-FI, 72 h, SKNFI, CNS, Neuroblastoma
[4] = Homo sapiens, SK-NEP-1, SKNEP1 (Kidney)
[5] = Homo sapiens, SK-OV-3, 72 h, SKOV3, Female GU, Ovary, 72 h
[6] = Homo sapiens, SK-UT-1, 72 h, SKUT1, Soft Tissue, Sarcoma, 72 h
[7] = Homo sapiens, SNB-19, SNB19 (CNS, Glioma)
[8] = Homo sapiens, SNU1, 72 h, SNU1, Stomach, 72 h
[9] = Homo sapiens, SNU-5, 72 h, SNU5, Stomach, 72 h
[10] = Homo sapiens, SNU-16, 72 h, SNU16, Stomach, 72 h
[11] = Homo sapiens, SNU-423, SNU423 (Liver)
[12] = Homo sapiens, SNU-C2B, SNUC2B (Colon)
[13] = Homo sapiens, ST486, ST486 (Hematopoietic and lymphoid, Lymphoma)
[14] = Homo sapiens, SU-DHL10, SUDHL10 (Hematopoietic and lymphoid, Lymphoma)
[15] = Homo sapiens, SU-DHL-4, SUDHL4 (Hematopoietic and lymphoid, Lymphoma)
[16] = Homo sapiens, SU-DHL-5, SUDHL5 (Hematopoietic and lymphoid, Lymphoma)
[17] = Homo sapiens, SU-DHL-8, SUDHL8 (Hematopoietic and lymphoid, Lymphoma)
[18] = Homo sapiens, SU.86.86, 72 h, SU8686, Pancreas, 72 h
[19] = Homo sapiens, SUP-T1, SUPT1 (Hematopoietic and lymphoid, Lymphoma)
[20] = Homo sapiens, SW13, SW13 (Endocrine, Adrenal gland)
[21] = Homo sapiens, SW48, SW48 (Colon)
[22] = Homo sapiens, SW480, SW480 (Colon)
[23] = Homo sapiens, SW684, 72 h, SW684, Soft Tissue, Sarcoma, 72 h
[24] = Homo sapiens, SW837, SW837 (Colon)
[25] = Homo sapiens, SW872, 72 h, SW872, Soft Tissue, Sarcoma, 72 h
[26] = Homo sapiens, SW900, 72 h, SW900, Lung, SCLC, 72 h
[27] = Homo sapiens, SW948, SW948 (Colon)
[28] = Homo sapiens, SW 954, 72 h, SW954, Female GU, Vulva, 72 h
[29] = Homo sapiens, SW 962, 72 h, SW962, Female GU, Vulva, 72 h
[30] = Homo sapiens, SW982, 72 h, SW982, Soft Tissue, Sarcoma, 72 h
[31] = Homo sapiens, SW1088, SW1088 (CNS, Glioma)
[32] = Homo sapiens, SW1353, 72 h, SW1353, Soft Tissue, Osteosarcoma, 72 h
[33] = Homo sapiens, SW1417, SW1417 (Colon)
[34] = Homo sapiens, SW1463, SW1463 (Colon)
[35] = Homo sapiens, SW1783, SW1783 (CNS, Glioma)
[36] = Homo sapiens, SW-403, SW403 (Colon)
[37] = Homo sapiens, SW-620, SW620 (Colon)
[38] = Homo sapiens, SiHa, SIHA (Female GU, Cervix)
[39] = Homo sapiens, T47D, T47D (Breast)
[40] = Homo sapiens, T98G, T98G (CNS, Glioma)
[41] = Homo sapiens, TCC-SUP, TCCSUP (Bladder)
[42] = Homo sapiens, THP-1, THP1 (Hematopoietic and lymphoid, Leukemia)
[43] = Homo sapiens, U2OS, 72 h, Soft Tissue, Osteosarcoma
[44] = Homo sapiens, U138-MG, U138MG (CNS, Glioma)
[45] = Homo sapiens, U-87 MG, U87MG (CNS, Glioma)
[46] = Homo sapiens, U-118-MG, U118MG (CNS, Glioma)
[47] = Homo sapiens, UMUC3, UMUC3 (Bladder)
[48] = Homo sapiens, WM 266-4, 72 h, WM2664, Skin, Melanoma, 72 h
[49] = Homo sapiens, WiDr, WIDR (Colon)
[50] = Homo sapiens, YAPC, 72 h, Pancreas
[51] = Homo sapiens, ZR-75-1, ZR751 (Breast)
[52] = Hs 445, HS445 (Hematopoietic and lymphoid, Lymphoma)
[53] = KG1 (Hematopoietic and lymphoid, Leukemia)
[54] = KHOS-240S, 72 h, KHOS240S, Soft Tissue, Osteosarcoma
[55] = MS751, 72 h, MS751, Female GU, Ovary, 72 h
[56] = MX1 (Hematopoietic and lymphoid, Leukemia)
[57] = NAMALWA (Hematopoietic and lymphoid, Lymphoma)
[58] = OE21, 72 h, OE21, Head and Neck, Esophageal, 72 h
[59] = RAMOSRA1 (Hematopoietic and lymphoid, Lymphoma)
[60] = SKO-007, 72 h, SKO007, Hematopoietic and lymphoid, Myeloma, 72 h
[61] = SR (Hematopoietic and lymphoid, Lymphoma)
[62] = SW579, 72 h, SW579, Endocrine, Thyroid, 72 h
[63] = TE 381.T, 72 h, TE381T, Soft Tissue, Sarcoma
[64] = TF1 (Hematopoietic and lymphoid, Leukemia)
[65] = TUR (Hematopoietic and lymphoid, Lymphoma)

C[C@]1(C(N)=O)CC[C@@H](n2c(Nc3c(Cl)cc(Cl)cc3Cl)nc3cnc(N[C@@H]4CCOC[C@H]4F)nc32)CC1 [Compound 1, cis-4-[2-{[(3S,4R)-3-fluorooxan-4-yl]amino}-8-(2,4,6-trichloroanilino)-9H-purin-9-yl]-1-methylcyclohexane-1-carboxamide]
GI50 [1]: 48.9 nM | IC50 [1]: 132 nM | GI50 [2]: 7400 nM | IC50 [2]: > 10000 nM | GI50 [3]: 15.1 nM | IC50 [3]: 135 nM | GI50 [4]: > 10000 nM | IC50 [4]: > 10000 nM | GI50 [5]: 547 nM | IC50 [5]: > 10000 nM | GI50 [6]: > 10000 nM | IC50 [6]: > 10000 nM | GI50 [7]: 163 nM | IC50 [7]: 244 nM | GI50 [8]: 35.5 nM | IC50 [8]: 63.1 nM | GI50 [9]: 36.8 nM | IC50 [9]: 94.3 nM | GI50 [10]: > 10000 nM | IC50 [10]: > 10000 nM | GI50 [11]: 192 nM | IC50 [11]: 276 nM | GI50 [12]: 54.4 nM | IC50 [12]: 722 nM | GI50 [13]: 5020 nM | IC50 [13]: 6140 nM | GI50 [14]: 1230 nM | IC50 [14]: 1400 nM | GI50 [15]: 168 nM | IC50 [15]: 332 nM | GI50 [16]: 1.1 nM | IC50 [16]: 1.3 nM | GI50 [17]: 19.3 nM | IC50 [17]: 40.6 nM | GI50 [18]: 63.5 nM | IC50 [18]: 132 nM | GI50 [19]: 19.6 nM | IC50 [19]: 46.6 nM | GI50 [20]: 71.1 nM | IC50 [20]: 135 nM | GI50 [21]: 1.8 nM | IC50 [21]: 3.1 nM | GI50 [22]: 18.4 nM | IC50 [22]: 31.1 nM | GI50 [23]: 86.9 nM | IC50 [23]: 370 nM | GI50 [24]: 172 nM | IC50 [24]: 348 nM | GI50 [25]: 105 nM | IC50 [25]: 136 nM | GI50 [26]: 21.6 nM | IC50 [26]: 39.9 nM | GI50 [27]: 195 nM | IC50 [27]: 327 nM | GI50 [28]: 114 nM | IC50 [28]: 142 nM | GI50 [29]: 82.8 nM | IC50 [29]: 232 nM | GI50 [30]: 15.6 nM | IC50 [30]: 61.4 nM | GI50 [31]: 3350 nM | IC50 [31]: 5980 nM | GI50 [32]: 184 nM | IC50 [32]: 292 nM | GI50 [33]: 8.8 nM | IC50 [33]: 35.1 nM | GI50 [34]: 135 nM | IC50 [34]: 181 nM | GI50 [35]: 5920 nM | IC50 [35]: 9850 nM | GI50 [36]: 47.6 nM | IC50 [36]: 173 nM | GI50 [37]: 49.2 nM | IC50 [37]: 79.8 nM | GI50 [38]: > 10000 nM | IC50 [38]: > 10000 nM | GI50 [39]: > 10000 nM | IC50 [39]: > 10000 nM | GI50 [40]: > 10000 nM | IC50 [40]: > 10000 nM | GI50 [41]: 2210 nM | IC50 [41]: 6590 nM | GI50 [42]: 25.1 nM | IC50 [42]: 49.5 nM | GI50 [43]: 230 nM | IC50 [43]: 373 nM | GI50 [44]: 53 nM | IC50 [44]: > 10000 nM | GI50 [45]: 69.2 nM | IC50 [45]: 101 nM | GI50 [46]: 175 nM | IC50 [46]: > 10000 nM | GI50 [47]: 149 nM | IC50 [47]: 201 nM | GI50 [48]: 12 nM | IC50 [48]: 35.4 nM | GI50 [49]: 10.4 nM | IC50 [49]: 13.3 nM | GI50 [50]: 183 nM | IC50 [50]: 670 nM | GI50 [51]: 94.3 nM | IC50 [51]: 7700 nM | GI50 [52]: 14.3 nM | IC50 [52]: 37.7 nM | GI50 (Hs766T, 72 h, Pancreas): 34.3 nM | IC50 (Hs766T, 72 h, Pancreas): 79.3 nM | GI50 (J82 (Bladder)): > 10000 nM | IC50 (J82 (Bladder)): > 10000 nM | GI50 [53]: 1.7 nM | IC50 [53]: 32.5 nM | GI50 [54]: > 10000 nM | IC50 [54]: > 10000 nM | GI50 (KPL-1, KPL1 (Breast)): > 10000 nM | IC50 (KPL-1, KPL1 (Breast)): > 10000 nM | GI50 [55]: 6910 nM | IC50 [55]: 9510 nM | GI50 (MT3 (Breast)): 674 nM | IC50 (MT3 (Breast)): 1080 nM | GI50 [56]: 40.1 nM | IC50 [56]: 61.9 nM | GI50 [57]: 18.1 nM | IC50 [57]: 23.9 nM | GI50 (OCUG-1, OCUG1 (Liver)): 464 nM | IC50 (OCUG-1, OCUG1 (Liver)): 1290 nM | GI50 [58]: 93.9 nM | IC50 [58]: 124 nM | GI50 [59]: 3660 nM | IC50 [59]: 3840 nM | GI50 (RKO (Colon)): 35.3 nM | IC50 (RKO (Colon)): 40.5 nM | GI50 (RKOAS451, RKOAS451 (Colon)): 40.5 nM | IC50 (RKOAS451, RKOAS451 (Colon)): 44.9 nM | GI50 (SH4 (Skin, Melanoma)): 20.8 nM | IC50 (SH4 (Skin, Melanoma)): 29 nM | GI50 [60]: 27.4 nM | IC50 [60]: 482 nM | GI50 [61]: 1420 nM | IC50 [61]: 1840 nM | GI50 [62]: 47.7 nM | IC50 [62]: 70.8 nM | GI50 (T24 (Bladder)): 233 nM | IC50 (T24 (Bladder)): 274 nM | GI50 [63]: 7.6 nM | IC50 [63]: 12.8 nM | GI50 [64]: 1.5 nM | IC50 [64]: 9.5 nM | GI50 [65]: 41.5 nM | IC50 [65]: 53.9 nM | GI50 (Y79 (Eye-retinoblastoma, Eye)): > 10000 nM | IC50 (Y79 (Eye-retinoblastoma, Eye)): > 10000 nM

Source: patent US10513519B2, “Solid forms of (1S,4S)-4-(2-(((3S,4R)-3-fluorotetrahydro-2H-pyran-4-yl)amino)-8-((2,4,6-trichlorophenyl)amino)-9H-purin-9-yl)-1-methylcyclohexane-1-carboxamide and methods of their use” (Signal Pharmaceuticals, LLC, priority 2016, dated 2019)
